How the values were obtained:
Test in all cases: fluorescent HDAC activity assay (BIOMOL kit) with purified HDAC
Assay type in all cases: biochemical
HDAC 3 = target: T1, HDAC 3 (Homo sapiens, UniProt O15379)
T1 construct: gene HDAC3

HDAC5 = HDAC5 (Homo sapiens, UniProt Q9UQL6)
HDAC6 = target: T2, HDAC6 (Homo sapiens, UniProt Q9UBN7)
T2 sequence (Q9UBN7 1-1215): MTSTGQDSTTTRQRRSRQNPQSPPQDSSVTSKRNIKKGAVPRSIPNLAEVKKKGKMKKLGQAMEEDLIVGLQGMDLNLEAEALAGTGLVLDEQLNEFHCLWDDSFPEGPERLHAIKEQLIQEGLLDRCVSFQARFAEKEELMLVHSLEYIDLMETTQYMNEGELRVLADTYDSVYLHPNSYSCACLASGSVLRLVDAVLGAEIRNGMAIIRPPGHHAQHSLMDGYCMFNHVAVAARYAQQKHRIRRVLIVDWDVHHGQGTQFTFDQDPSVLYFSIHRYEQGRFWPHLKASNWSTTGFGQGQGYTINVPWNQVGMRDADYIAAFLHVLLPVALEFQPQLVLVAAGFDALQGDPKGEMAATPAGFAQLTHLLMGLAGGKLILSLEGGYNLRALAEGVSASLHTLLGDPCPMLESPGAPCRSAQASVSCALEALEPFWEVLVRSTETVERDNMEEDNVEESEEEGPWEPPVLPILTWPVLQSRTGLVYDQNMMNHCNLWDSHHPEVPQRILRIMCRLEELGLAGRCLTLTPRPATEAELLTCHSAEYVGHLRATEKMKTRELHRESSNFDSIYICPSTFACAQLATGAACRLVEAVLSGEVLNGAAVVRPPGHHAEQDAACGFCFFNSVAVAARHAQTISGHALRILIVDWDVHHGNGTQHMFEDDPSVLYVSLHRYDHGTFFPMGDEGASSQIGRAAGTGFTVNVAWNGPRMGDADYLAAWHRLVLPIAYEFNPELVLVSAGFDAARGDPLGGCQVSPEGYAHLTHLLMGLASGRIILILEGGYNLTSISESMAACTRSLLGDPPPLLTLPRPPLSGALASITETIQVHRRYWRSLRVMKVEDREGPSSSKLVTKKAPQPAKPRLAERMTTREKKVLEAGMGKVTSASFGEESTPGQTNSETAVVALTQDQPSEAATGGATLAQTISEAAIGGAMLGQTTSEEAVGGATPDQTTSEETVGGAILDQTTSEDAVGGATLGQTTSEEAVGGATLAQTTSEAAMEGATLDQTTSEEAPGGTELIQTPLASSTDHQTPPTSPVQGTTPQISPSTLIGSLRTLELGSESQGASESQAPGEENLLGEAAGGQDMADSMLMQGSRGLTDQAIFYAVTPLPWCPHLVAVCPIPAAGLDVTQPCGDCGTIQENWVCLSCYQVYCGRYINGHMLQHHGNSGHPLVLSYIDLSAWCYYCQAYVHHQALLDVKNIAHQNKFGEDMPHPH

HDAC2 = HDAC2 (Homo sapiens, UniProt Q92769)
HDAC4 = HDAC4 (Homo sapiens, UniProt P56524)
HDAC1 = HDAC1 (Homo sapiens, UniProt Q13547)
HDAC1, sequence (Q13547 whole entry): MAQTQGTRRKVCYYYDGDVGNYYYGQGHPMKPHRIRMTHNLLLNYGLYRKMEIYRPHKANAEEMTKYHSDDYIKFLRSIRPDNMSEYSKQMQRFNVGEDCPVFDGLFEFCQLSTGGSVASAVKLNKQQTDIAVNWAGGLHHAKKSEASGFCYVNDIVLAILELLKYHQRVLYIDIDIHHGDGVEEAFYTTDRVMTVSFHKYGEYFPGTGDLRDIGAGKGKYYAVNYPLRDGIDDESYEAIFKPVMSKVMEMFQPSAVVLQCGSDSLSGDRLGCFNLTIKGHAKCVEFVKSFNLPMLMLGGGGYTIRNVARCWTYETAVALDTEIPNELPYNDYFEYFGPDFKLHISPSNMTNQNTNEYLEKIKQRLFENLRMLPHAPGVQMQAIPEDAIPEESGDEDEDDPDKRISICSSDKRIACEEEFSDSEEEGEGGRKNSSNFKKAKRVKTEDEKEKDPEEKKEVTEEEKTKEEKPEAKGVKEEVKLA

T1 sequence (O15379 whole entry): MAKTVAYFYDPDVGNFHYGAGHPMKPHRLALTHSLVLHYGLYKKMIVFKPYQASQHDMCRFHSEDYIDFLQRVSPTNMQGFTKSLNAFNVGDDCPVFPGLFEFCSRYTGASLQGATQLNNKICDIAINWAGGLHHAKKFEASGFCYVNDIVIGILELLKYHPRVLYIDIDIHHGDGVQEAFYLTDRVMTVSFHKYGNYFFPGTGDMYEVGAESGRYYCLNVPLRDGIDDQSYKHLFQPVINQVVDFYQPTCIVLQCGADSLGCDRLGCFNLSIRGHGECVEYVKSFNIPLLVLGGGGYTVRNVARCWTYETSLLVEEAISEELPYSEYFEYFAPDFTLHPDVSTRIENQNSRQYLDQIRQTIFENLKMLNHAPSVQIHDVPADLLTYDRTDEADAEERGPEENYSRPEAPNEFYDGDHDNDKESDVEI
HDAC2, sequence (Q92769 whole entry): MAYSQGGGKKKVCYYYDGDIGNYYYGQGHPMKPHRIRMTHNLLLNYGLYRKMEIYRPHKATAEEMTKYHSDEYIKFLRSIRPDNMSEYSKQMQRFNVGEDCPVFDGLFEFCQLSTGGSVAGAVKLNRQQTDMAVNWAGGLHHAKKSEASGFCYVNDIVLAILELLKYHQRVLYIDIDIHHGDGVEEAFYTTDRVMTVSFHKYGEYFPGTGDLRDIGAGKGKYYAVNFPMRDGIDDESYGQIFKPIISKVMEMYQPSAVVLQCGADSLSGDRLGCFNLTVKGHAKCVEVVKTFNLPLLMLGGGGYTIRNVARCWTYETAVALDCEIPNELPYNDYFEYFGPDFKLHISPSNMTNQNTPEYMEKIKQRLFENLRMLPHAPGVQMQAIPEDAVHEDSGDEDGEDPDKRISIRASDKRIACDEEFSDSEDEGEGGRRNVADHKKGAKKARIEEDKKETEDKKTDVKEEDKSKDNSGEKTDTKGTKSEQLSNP
HDAC4, sequence (P56524 whole entry): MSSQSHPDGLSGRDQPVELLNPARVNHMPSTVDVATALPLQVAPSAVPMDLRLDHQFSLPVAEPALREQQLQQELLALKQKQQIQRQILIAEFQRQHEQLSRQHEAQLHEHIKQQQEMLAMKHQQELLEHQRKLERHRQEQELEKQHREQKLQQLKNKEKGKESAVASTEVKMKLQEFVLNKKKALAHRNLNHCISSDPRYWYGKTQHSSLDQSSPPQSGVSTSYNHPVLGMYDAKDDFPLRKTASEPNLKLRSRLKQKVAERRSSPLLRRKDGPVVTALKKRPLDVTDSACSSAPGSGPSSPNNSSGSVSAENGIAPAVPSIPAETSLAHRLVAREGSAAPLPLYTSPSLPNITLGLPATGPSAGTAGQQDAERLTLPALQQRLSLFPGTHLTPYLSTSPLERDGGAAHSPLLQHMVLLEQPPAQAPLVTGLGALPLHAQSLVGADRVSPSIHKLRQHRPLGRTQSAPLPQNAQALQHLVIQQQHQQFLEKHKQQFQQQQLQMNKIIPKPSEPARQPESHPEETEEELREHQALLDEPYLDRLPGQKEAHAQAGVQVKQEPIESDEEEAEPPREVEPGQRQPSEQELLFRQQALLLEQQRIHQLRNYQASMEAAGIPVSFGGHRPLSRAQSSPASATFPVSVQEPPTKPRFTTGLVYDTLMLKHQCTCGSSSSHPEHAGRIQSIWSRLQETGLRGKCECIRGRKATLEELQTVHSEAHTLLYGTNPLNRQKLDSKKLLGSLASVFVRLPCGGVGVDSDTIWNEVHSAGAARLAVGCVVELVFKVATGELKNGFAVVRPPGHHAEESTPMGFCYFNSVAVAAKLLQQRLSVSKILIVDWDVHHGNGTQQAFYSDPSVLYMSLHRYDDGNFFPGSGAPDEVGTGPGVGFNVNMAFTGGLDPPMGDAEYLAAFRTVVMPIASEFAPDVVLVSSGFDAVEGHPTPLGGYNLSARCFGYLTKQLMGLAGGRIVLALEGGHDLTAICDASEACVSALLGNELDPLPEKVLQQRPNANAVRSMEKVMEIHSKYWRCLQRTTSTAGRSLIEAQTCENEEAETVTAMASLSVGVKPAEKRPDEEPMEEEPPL
HDAC5, sequence (Q9UQL6 whole entry): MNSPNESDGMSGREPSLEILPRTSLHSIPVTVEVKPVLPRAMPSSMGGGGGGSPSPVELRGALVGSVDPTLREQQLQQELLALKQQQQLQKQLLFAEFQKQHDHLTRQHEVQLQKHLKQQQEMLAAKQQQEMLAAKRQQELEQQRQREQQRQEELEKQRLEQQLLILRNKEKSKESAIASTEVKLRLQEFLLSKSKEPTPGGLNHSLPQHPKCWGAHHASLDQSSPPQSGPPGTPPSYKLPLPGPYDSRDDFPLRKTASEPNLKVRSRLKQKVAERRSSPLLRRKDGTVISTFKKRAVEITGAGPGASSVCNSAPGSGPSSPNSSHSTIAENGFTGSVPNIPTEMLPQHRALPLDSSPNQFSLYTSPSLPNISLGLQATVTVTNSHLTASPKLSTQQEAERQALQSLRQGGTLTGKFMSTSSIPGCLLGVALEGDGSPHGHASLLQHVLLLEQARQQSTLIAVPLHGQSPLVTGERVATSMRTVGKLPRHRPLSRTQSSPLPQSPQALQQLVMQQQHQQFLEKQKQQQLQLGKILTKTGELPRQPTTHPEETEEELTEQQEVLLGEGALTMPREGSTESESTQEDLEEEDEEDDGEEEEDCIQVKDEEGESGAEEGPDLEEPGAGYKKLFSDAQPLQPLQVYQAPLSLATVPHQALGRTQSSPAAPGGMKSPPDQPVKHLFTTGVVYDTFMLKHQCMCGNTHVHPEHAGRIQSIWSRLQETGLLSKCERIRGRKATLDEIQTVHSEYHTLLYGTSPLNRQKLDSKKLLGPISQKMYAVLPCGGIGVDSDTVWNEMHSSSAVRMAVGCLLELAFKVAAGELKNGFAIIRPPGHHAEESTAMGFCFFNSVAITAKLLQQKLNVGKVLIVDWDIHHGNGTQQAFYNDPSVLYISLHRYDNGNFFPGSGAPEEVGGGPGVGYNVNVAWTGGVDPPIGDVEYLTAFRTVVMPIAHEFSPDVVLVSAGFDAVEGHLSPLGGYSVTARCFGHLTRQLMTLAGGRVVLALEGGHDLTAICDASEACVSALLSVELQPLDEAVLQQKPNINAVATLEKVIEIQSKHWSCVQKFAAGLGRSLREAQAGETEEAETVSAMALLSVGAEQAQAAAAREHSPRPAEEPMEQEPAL

- IC50 (HDAC 3): 450 to 1390 nM
- IC50 (HDAC5): 450 to 1390 nM
- IC50 (HDAC6): 450 to 1390 nM
- IC50 (HDAC2): 450 to 1390 nM
- IC50 (HDAC4): 450 to 1390 nM
- IC50 (HDAC1): 450 to 1390 nM
Substance: PAC-320

Source: paper PMC5787485, “HDAC inhibitor PAC-320 induces G2/M cell cycle arrest and apoptosis in human prostate cancer” (Oncotarget, 2017)
